Assay results as given in US20220153751A1, “BIFUNCTIONAL COMPOUNDS” (BioTheryX, Inc., priority 2018, published 2022).

Assays:
Format in all cases: cell-based
[1] = target: T1, IKAROS (Homo sapiens, UniProt Q13422+Q96SW2); experiment: IKAROS degradation assay (Western blot, MV-4-11 cells); settings: MV4-11, 6-8 h
T1 construct: endogenous in cells; host or cells: MV-4-11
Procedure: (§1) MV-4-11 cells were grown in RPMI 1640 media supplemented with 10% fetal bovine serum, streptomycin and penicillin.
(§2) Cells were cultured at approximately 10^6 cells per mL and incubated in DMSO or the indicated compound for 6-8 h. Whole cell extracts were prepared using RIPA buffer according to manufacturer's protocol (Pierce). Briefly, 3×10^6 cells were washed once in PBS, the cell pellets were resuspended in RIPA buffer and allowed to incubate for 15 minutes on ice. Cells debris was removed by centrifugation and the cleared whole cell lysates were transferred to new tubes for further analysis.
(§3) For Western blot analysis, whole cell protein extracts were separated on 4-12% SDS-polyacrylamide gels, transferred to nitrocellulose and probed with the indicated primary antibodies. Membranes were subsequently washed and probed with the appropriate IRDye secondary antibodies (LI-COR). The signal was detected using the Odyssey Imaging System (LI-COR).
(§4) The following antibodies were used in these studies: Anti-eRF3/GSPT1: Abcam, ab126090 (Cambridge, Mass.); Anti-Ikaros: Abcam, ab191394 (Cambridge, Mass.); Anti-CK1α: Abcam, ab108296 (Cambridge, Mass.); Anti-CDK9: Santa Cruz Biotechnology, sc13130 (Dallas, Tex.); Anti-CDK16: Millipore Sigma, HPA001366 (St. Louis, Mo.); 3-actin (8H10comD10) mouse monoclonal antibody: Cell Signaling Technology, #3700 (Danvers, Mass.); IRDye 680RD Goat anti-rabbit antibody: LI-COR, 926-68071 (Lincoln, Nebr.); IRDye 800CW Goat anti-mouse antibody: LI-COR, 926-32210 (Lincoln, Nebr.).
(§5) CDK9 activities are shown in Table 4 at two different concentrations. CDK16 activities are shown in Table 5 at two different concentrations. In each of Tables 1-5, the % degradation values are reported as “A”, “B”, “C”, or “D”. “A” represents a % degradation value of less than 25% (value <25%). “B” represents a % degradation value of equal to or more than 25% and less than 50% (25%≤value<50%). “C” represents a % degradation value of equal to or more than 50% and less than 75% (50%≤value<75%). “D” represents a % degradation value of equal to or more than 75% (value ≥75%).

[2] = target: T2, CK1α (Homo sapiens, UniProt P48729+Q96SW2); experiment: CK1α degradation assay (Western blot, MV-4-11 cells); settings: MV4-11, 6-8 h
T2 construct: Whole cell extracts were prepared using RIPA buffer; endogenous in cells; host or cells: MV-4-11
T2 sequence (P48729 whole entry): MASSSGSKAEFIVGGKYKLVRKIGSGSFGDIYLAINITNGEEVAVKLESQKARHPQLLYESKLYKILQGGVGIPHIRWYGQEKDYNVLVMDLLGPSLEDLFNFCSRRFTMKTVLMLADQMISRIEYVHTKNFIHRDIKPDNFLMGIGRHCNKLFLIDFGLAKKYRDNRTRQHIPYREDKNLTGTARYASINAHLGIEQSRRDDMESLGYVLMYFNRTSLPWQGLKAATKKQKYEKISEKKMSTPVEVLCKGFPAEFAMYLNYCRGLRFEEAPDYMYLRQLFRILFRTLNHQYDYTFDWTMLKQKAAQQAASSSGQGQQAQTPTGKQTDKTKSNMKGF
T2 sequence (Q96SW2 whole entry): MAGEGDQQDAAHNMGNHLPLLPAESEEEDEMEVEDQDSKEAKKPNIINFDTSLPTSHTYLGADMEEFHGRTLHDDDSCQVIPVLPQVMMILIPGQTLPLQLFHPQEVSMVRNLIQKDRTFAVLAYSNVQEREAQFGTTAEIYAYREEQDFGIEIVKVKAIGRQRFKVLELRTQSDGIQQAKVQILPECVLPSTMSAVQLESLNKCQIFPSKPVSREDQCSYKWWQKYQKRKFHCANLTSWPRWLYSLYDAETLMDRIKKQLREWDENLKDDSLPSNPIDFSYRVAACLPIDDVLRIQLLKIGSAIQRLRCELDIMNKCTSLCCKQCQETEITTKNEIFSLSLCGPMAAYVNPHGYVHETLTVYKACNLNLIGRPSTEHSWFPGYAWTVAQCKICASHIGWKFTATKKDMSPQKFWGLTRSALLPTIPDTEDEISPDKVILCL
T2 sequence (Q16531 whole entry partner): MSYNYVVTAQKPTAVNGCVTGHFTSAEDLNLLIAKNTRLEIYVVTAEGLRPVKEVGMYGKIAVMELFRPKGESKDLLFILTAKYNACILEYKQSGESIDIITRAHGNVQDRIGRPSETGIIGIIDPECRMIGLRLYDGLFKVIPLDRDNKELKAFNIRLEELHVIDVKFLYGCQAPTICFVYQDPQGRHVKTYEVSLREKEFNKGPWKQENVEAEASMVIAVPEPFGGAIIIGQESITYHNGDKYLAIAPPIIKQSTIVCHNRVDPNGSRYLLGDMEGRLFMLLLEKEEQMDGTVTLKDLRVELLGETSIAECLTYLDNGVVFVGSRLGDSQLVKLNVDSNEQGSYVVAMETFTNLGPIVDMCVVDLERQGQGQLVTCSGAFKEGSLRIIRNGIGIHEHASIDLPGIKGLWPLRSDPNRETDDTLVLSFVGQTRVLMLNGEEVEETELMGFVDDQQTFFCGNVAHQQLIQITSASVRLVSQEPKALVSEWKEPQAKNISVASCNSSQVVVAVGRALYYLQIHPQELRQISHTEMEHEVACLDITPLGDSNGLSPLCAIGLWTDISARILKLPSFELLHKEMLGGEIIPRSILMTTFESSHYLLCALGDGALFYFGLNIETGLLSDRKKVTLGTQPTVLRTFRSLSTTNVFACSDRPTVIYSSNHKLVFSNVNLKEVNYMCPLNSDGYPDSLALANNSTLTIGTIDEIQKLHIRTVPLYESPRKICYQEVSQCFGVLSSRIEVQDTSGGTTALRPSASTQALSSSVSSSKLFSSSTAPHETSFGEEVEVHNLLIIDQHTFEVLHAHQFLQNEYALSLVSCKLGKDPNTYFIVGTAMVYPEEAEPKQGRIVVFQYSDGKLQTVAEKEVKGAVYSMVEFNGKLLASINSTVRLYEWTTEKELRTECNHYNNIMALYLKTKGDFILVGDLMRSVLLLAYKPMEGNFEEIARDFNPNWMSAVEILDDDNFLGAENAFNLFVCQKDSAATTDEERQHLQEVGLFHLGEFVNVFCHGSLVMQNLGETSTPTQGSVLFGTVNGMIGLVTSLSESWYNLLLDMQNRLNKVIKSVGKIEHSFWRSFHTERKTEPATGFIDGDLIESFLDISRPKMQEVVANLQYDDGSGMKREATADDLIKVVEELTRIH
Procedure: as §1, §2, §3, §4, §5

[3] = test system: MOLM-13 cells; experiment: MOLM-13 cell viability assay (CellTiter-Glo); settings: Homo sapiens, MOLM-13, 72 h, 3 days, read-out: MOLM-13 Cell Viability % DMSO at 1 μM
Method in brief: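 MOLM-13 cells at 2500 cells/well were exposed to compound for 3 days at 37 °C. Viability was read by CellTiter-Glo luminescence and expressed as % of DMSO control, binned A (<50%), B (50–<70%), C (70–<90%) or D (≥90%).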

[4] = test system: IL-1β; experiment: IL-1β inhibition assay, LPS-induced PBMCs / CD14+ monocytes (Meso Scale); settings: 1 h pretreatment, 100 ng/mL LPS 18-24 h
Procedure: (§6) Either frozen primary blood mononuclear cells (PBMCs) or frozen CD14+ mobilized peripheral blood monocytes were purchased from AllCells (PB003F, Normal Peripheral Blood MNC (Alameda, Calif.)). Cells were quick thawed, washed 1-time with RPMI-1640 (10% FBS/1% Pen-Strep) and plated in 96 well plates at 200,000 cells per well. Cells were pretreated with DMSO only or with the indicated compound for 1 h and then induced with 100 ng/mL lipopolysaccharide (LPS) for 18-24 h. The supernatant was analyzed for IL-1β, IL-6, and TNFα, using Meso Scale assay according to manufacturer's protocol. The negative control wells were treated with DMSO.
(§7) In Table 6, the % inhibition values are reported as “A”, “B”, “C”, or “D”. “A” represents a % inhibition value of less than 50% (value <50%). “B” represents a % inhibition value of equal to or more than 50% and less than 70% (50%≤value<70%). “C” represents a % inhibition value of equal to or more than 70% and less than 90% (70%≤value<90%). “D” represents a % inhibition value of equal or more than 90% (value ≥90%). In Table 7, the fold-change values are reported as “A”, “B”, “C”, or “D”. “A” represents a fold-change value of equal to or less than 0.1 (value ≤0.1). “B” represents a fold-change value of more than 0.1 and equal to or less than 0.5 (0.1<value≤0.5). “C” represents a fold-change value of more than 0.5 and equal to or less than 1 (0.5<value≤1). “D” represents a fold-change value of more than 1 (value >1).

[5] = test system: IL-6; experiment: IL-6 inhibition assay, LPS-induced PBMCs / CD14+ monocytes (Meso Scale); settings: 1 h pretreatment, 100 ng/mL LPS 18-24 h
Procedure: as §6, §7

[6] = test system: TNF-α; experiment: TNF-α inhibition assay, LPS-induced PBMCs / CD14+ monocytes (Meso Scale); settings: 1 h pretreatment, 100 ng/mL LPS 18-24 h
Procedure: as §6, §7

[7] = target: T3, GSPT1 (Homo sapiens, UniProt P15170+Q96SW2); experiment: GSPT1 degradation assay (Western blot, MV-4-11 cells); settings: MV4-11, 6-8 h
T3 construct: Whole cell extracts were prepared using RIPA buffer; endogenous in cells; host or cells: MV-4-11
T3 sequence (P15170 whole entry): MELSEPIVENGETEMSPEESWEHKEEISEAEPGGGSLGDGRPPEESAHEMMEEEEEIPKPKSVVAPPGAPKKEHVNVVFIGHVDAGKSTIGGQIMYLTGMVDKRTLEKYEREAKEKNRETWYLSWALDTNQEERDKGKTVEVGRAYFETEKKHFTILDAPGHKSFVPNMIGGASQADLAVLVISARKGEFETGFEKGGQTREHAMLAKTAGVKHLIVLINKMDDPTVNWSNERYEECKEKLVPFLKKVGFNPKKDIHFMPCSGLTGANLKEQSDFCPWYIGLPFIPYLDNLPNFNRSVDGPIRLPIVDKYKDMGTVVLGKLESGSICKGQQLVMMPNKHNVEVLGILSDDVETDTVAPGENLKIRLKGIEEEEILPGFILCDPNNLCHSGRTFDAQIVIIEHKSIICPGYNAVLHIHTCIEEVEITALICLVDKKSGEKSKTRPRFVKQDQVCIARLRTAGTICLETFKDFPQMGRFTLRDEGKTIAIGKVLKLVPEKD
T3 sequence (Q96SW2 whole entry): as the sequence (Q96SW2 whole entry) above
T3 sequence (Q16531 whole entry partner): as the sequence (Q16531 whole entry partner) above
Procedure: as §1, §2, §3, §4, §5

[8] = target: T4, CDK9 (Homo sapiens, UniProt P50750); experiment: CDK9 degradation assay (Western blot, MV-4-11 cells); settings: 6-8 h
T4 construct: Whole cell extracts were prepared using RIPA buffer; endogenous in cells; host or cells: MV-4-11
T4 sequence (P50750 whole entry): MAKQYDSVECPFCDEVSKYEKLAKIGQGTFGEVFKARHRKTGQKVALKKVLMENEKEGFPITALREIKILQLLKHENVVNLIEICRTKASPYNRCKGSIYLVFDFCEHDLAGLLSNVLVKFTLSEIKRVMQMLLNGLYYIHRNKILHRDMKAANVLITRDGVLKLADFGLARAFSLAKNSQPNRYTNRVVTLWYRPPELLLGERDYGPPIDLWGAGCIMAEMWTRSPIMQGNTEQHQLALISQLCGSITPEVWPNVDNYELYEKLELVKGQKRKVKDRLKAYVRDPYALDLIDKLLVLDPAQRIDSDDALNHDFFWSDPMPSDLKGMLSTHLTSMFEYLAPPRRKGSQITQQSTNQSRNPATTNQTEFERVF
Method in brief: (§8)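 6-8 h cpd vs DMSO, ~10^6 cells/mL; RIPA lysis on ice 15 min; 4-12% SDS-PAGE, nitrocellulose, IRDye secondaries, Odyssey scan. % degradation categories: A <25, B 25-<50, C 50-<75, D ≥75%.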

[9] = target: T5, CDK16 (Homo sapiens, UniProt Q00536); experiment: CDK16 degradation assay (Western blot, MV-4-11 cells); settings: 6-8 h
T5 construct: Whole cell extracts were prepared using RIPA buffer; endogenous in cells; host or cells: MV-4-11
T5 sequence (Q00536 whole entry): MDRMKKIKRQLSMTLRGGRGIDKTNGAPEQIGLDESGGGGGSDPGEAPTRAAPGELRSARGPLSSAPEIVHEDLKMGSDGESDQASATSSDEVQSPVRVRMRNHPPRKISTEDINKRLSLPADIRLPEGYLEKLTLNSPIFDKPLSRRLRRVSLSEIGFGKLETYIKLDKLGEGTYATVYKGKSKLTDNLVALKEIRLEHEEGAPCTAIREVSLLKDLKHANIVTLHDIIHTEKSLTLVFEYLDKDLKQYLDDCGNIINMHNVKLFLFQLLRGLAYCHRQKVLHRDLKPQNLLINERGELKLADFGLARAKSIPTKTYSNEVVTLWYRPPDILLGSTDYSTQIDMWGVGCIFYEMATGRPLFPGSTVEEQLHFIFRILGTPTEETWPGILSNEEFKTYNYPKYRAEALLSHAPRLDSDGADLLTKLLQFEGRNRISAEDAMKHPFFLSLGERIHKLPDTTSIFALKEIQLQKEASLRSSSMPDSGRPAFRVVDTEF
Method in brief: as §8

T1 sequence (Q13422 whole entry): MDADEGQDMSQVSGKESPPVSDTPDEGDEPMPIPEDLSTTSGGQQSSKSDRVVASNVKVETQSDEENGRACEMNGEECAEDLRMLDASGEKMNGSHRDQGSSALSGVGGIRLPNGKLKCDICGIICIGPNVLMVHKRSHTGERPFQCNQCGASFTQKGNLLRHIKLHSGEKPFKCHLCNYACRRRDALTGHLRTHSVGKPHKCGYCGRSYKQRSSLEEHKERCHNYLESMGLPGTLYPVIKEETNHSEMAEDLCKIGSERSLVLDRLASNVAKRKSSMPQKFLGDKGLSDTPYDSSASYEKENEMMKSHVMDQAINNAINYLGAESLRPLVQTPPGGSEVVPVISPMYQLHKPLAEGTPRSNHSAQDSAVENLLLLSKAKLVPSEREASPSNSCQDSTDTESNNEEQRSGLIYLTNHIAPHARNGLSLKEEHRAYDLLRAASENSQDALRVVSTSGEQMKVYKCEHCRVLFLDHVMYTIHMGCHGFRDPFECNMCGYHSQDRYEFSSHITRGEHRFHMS
T1 sequence (Q96SW2 whole entry): as the sequence (Q96SW2 whole entry) above
T1 sequence (Q16531 whole entry partner): as the sequence (Q16531 whole entry partner) above

| SMILES | Dmax at 1 µM [1] | Dmax at 1 µM [2] | viability at 1 µM [3] | inhibition at 1 µM [4] | inhibition at 1 µM [5] | inhibition at 1 µM [6] | Dmax at 1 µM [7] | Dmax at 0.1 µM ([8]; MV4-11, 0.1 μM) | Dmax at 1 µM ([8]; MV4-11, 1 μM) | Dmax at 0.1 µM ([9]; MV4-11, 0.1 μM) | Dmax at 1 µM ([9]; MV4-11, 1 μM) |
| --- | --- | --- | --- | --- | --- | --- | --- | --- | --- | --- | --- |
| CC(C)(C)c1cnc(CSc2cnc(NC(=O)C3CCN(CC(=O)NCCCCNCc4ccc(OCc5scc6c5CN([C@H]5CCC(=O)NC5=O)C6=O)cc4)CC3)s2)o1 (stereo in doubt) [Compound 54, N-(5-(((5-(tert-butyl)oxazol-2-yl)methyl)thio)thiazol-2-yl)-1-(2-((4-((4-((5-(2,6-dioxopiperidin-3-yl)-4-oxo-5,6-dihydro-4H-thieno[3,4-c]pyrrol-1-yl)methoxy)benzyl)amino)butyl)amino)-2-oxoethyl)piperidine-4-carboxamide] | 50 to 75% | 50 to 75% | > 90% | – | – | – | – | – | – | – | – |
| CC(C)(C)c1cnc(CSc2cnc(NC(=O)C3CCN(CC(=O)NCCOCCNC(=O)NCc4ccc5c(c4)CN([C@H]4CCCC(=O)NC4=O)C5=O)CC3)s2)o1 [Compound 6, (S)—N-(5-(((5-(tert-butyl)oxazol-2-yl)methyl)thio)thiazol-2-yl)-1-(1-(2-(2,7-dioxoazepan-3-yl)-1-oxoisoindolin-5-yl)-3,11-dioxo-7-oxa-2,4,10-triazadodecan-12-yl)piperidine-4-carboxamide] | 25 to 50% | < 25% | < 50% | < 50% | 50 to 70% | < 50% | – | – | – | – | – |
| CC(C)(C)c1cnc(CSc2cnc(NC(=O)C3CCN(CC(=O)NCCOCCNC(=O)NCc4cccc5c4CN([C@H]4CCCC(=O)NC4=O)C5=O)CC3)s2)o1 [Compound 7, (S)—N-(5-(((5-(tert-butyl)oxazol-2-yl)methyl)thio)thiazol-2-yl)-1-(1-(2-(2,7-dioxoazepan-3-yl)-1-oxoisoindolin-4-yl)-3,11-dioxo-7-oxa-2,4,10-triazadodecan-12-yl)piperidine-4-carboxamide] | < 25% | < 25% | < 50% | < 50% | < 50% | < 50% | – | – | – | – | – |
| Cn1ncc(-c2nc(N[C@H]3CC[C@H](NC(=O)CCCCCCNCC(=O)NCc4ccc(COc5cccc6c5CN(C5CCC(=O)NC5=O)C6=O)cc4)CC3)ncc2Cl)c1CC1CC1 (stereo partly drawn) [Compound 8, N-((1r,4r)-4-((5-chloro-4-(5-(cyclopropylmethyl)-1-methyl-1H-pyrazol-4-yl)pyrimidin-2-yl)amino)cyclohexyl)-7-((2-((4-(((2-(2,6-dioxopiperidin-3-yl)-1-oxoisoindolin-4-yl)oxy)methyl)benzyl)amino)-2-oxoethyl)amino)heptanamide] | 50 to 75% | – | 70 to 90% | < 50% | < 50% | < 50% | < 25% | – | – | – | – |
| Cn1ncc(-c2nc(N[C@H]3CC[C@H](NCCCCCCCCNC(=O)NCc4cc5c(s4)C(=O)N(C4CCC(=O)NC4=O)C5)CC3)ncc2Cl)c1CC1CC1 (stereo partly drawn) [Compound 22, 1-(8-(((1r,4r)-4-((5-chloro-4-(5-(cyclopropylmethyl)-1-methyl-1H-pyrazol-4-yl)pyrimidin-2-yl)amino)cyclohexyl)amino)octyl)-3-((5-(2,6-dioxopiperidin-3-yl)-6-oxo-5,6-dihydro-4H-thieno[2,3-c]pyrrol-2-yl)methyl)urea] | – | < 25% | > 90% | – | – | – | – | 50 to 75% | ≥ 75% | < 25% | 50 to 75% |
| Cn1ncc(-c2nc(N[C@H]3CC[C@H](NCCOCCOCCOCCNCc4ccc(OCc5scc6c5CN([C@H]5CCC(=O)NC5=O)C6=O)cc4)CC3)ncc2Cl)c1CC1CC1 [Compound 69, (S)-3-(1-((4-(13-(((1r,4r)-4-((5-chloro-4-(5-(cyclopropylmethyl)-1-methyl-1H-pyrazol-4-yl)pyrimidin-2-yl)amino)cyclohexyl)amino)-5,8,11-trioxa-2-azatridecyl)phenoxy)methyl)-4-oxo-4H-thieno[3,4-c]pyrrol-5(6H)-yl)piperidine-2,6-dione] | ≥ 75% | 50 to 75% | < 50% | 70 to 90% | < 50% | 70 to 90% | – | – | – | – | – |
